Measurements: US4540664A, “Method of saccharifying cellulose” (The United States of America as represented by the United …, priority 1983, dated 1985)

Test system: extracellular cellulase of Clostridium thermocellum ATTC 27405
Assay: Saccharification of Avicel by desalted cellulase, followed by the decrease in turbidity at 660 nm
Type: biochemical
Conditions: Avicel substrate
Procedure: In these experiments 50 μg of the protein that had been desalted by passage through the gel filtration resin was incubated with 3 mg of the substrate in 3 ml of substrate buffer. The buffer was 0.1M succinic acid/NaOH with a pH of 5.5. The suspension was diluted to 5 ml. No Ca^2+ was added. The cellulase activity was monitored by the decrease in turbidity of the suspension measured at 660 nm. By this method, the turbidity of the suspension decreases as more cellulose is saccharified, and less light is absorbed.
The reaction conditions were the same as for the samples used in FIG. 1 except that each sample included 5 mM DTT and either no additions, 10 mM EDTA, 7 mM CaCl2, or 7 mM MgCl2.

| effect of DTT on rate of saccharification (5 mM DTT, no Ca2+ added, pH 5.5 (FIG. 1)) | Structure (SMILES) | effect of DTT on extent and duration of saccharification (2 mM DTT, no Ca2+ added, pH 5.5, compared with no reducing agent (FIG. 1)) | effect of EDTA on saccharification (10 mM EDTA, 5 mM DTT, 0.1M succinic acid/NaOH pH 5.5 (FIG. 2)) |
| --- | --- | --- | --- |
| rate of saccharification is greater | O[C@H](CS)[C@H](O)CS (racemic) [DTT, dithiothreitol] | saccharification continues over 90 hours and is much more extensive | – |
| – | O=C(O)CN(CCN(CC(=O)O)CC(=O)O)CC(=O)O [EDTA] | – | completely inhibits saccharification |
